Reference: patent US9181234B2, “Antibacterial compounds” (priority 2010, dated 2015)
Values after ≈ are worked out from the molar mass of the structure shown.

Legend:
physchem = settings: kinetic from dmso stock
Method in brief: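 DMSO doubling dilutions were diluted twenty-fold into 100 mM citrate (pH 4), PBS (pH 7.4) or carbonate-bicarbonate (pH 9). After 24 h equilibration at room temperature, absorbance was read at 620 nm. The reported value is the highest concentration without measurable precipitate.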

[1] = tested on: Staphylococcus aureus (Isolate ID ATCC 29213); experiment: Antibacterial activity, MIC, S. aureus; assay type: cell-based; settings: Staphylococcus aureus, ATCC29213, Gram positive strain; broth microdilution or agar dilution
Method in brief: (§1)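 Susceptibility testing run in liquid or on solid media, with MIC values obtained by the CLSI-described broth microdilution or agar dilution method.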

[2] = tested on: Enterococcus faecalis (Isolate ID ATCC 29212); experiment: Antibacterial activity, MIC, E. faecalis; assay type: cell-based; settings: Enterococcus faecalis, ATCC29212; Gram positive strain; broth microdilution or agar dilution
Method in brief: as §1

[3] = tested on: Streptococcus pyogenes (Isolate ID ATCC 51339); experiment: Antibacterial activity, MIC, S. pyogenes; assay type: cell-based; settings: Streptococcus pyogenes, ATCC51339, Gram positive strain; broth microdilution or agar dilution
Method in brief: as §1

[4] = tested on: Haemophilus influenzae (Isolate ID ATCC 49247); experiment: Antibacterial activity, MIC, H. influenzae; assay type: cell-based; settings: Haemophilus influenzae, ATCC49247; Gram negative strain; broth microdilution or agar dilution
Method in brief: as §1

[5] = pH 7.4, aqueous buffer, Max Solubility
[6] = pH 7.4, aqueous buffer, Solubility (pH 7.4)
[7] = pH 7.4, aqueous buffer, Solubility Range
[8] = pH 7.4, aqueous buffer, Solubility Range (maximum solubility)
[9] = pH 9, aqueous buffer, Max Solubility
[10] = pH 9, aqueous buffer, Solubility Range (maximum solubility)

| Compound | solubility at 24 h (physchem; [5]) [µg/mL] | solubility at 24 h (physchem; [6]) [µg/mL] | solubility at 24 h (physchem; [7]) [µg/mL] | solubility at 24 h (physchem; [8]) [µg/mL] | MIC [1] [µg/mL] | MIC [2] [µg/mL] | MIC [3] [µg/mL] | MIC [4] [µg/mL] | solubility at 24 h (physchem; [9]) [µg/mL] | solubility at 24 h (physchem; [10]) [µg/mL] | solubility at 24 h (physchem; pH 4, aqueous buffer, Max Solubility) [µg/mL] | solubility at 24 h (physchem; pH 4, aqueous buffer, Solubility Range (maximum solubility)) [µg/mL] |
| --- | --- | --- | --- | --- | --- | --- | --- | --- | --- | --- | --- | --- |
| CCNC(=O)Nc1nc2cc(-c3cnc(N4CCC(C)(C(=O)O)CC4)nc3)cc(C3CCOCC3)c2s1 [Compound 47, 1-[5-[2-(ethylcarbamoylamino)-7-tetrahydropyran-4-yl-1,3-benzothiazol-5-yl]pyrimidin-2-yl]-4-methyl-piperidine-4-carboxylic acid] | ≥ 800 | ≥ 800 | > 800 | > 800 | 1 to 16 (≈ 1.91 to 30.5 µM) | 0.25 to 1 (≈ 0.477 to 1.91 µM) | 1 to 16 (≈ 1.91 to 30.5 µM) | > 16 | – | – | – | – |
| CCNC(=O)Nc1nc2cc(-c3cnc(N4CCC(C)(C(=O)O)CC4)nc3)cc(-c3cc(OC(C)C)ncn3)c2s1 [Compound 48] | – | 400 (≈ 694 µM) | 400 to 800 (≈ 694 to 1390 µM) | – | ≤ 0.25 | ≤ 0.25 | ≤ 0.25 | 1 to 16 (≈ 1.73 to 27.7 µM) | ≥ 800 | > 800 | – | – |
| CCNC(=O)Nc1nc2cc(-c3cnc(N4CCC(C)(C(=O)O)CC4)nc3)cc(-c3cc(OCCOC)nc(C)n3)c2s1 [Compound 49] | ≥ 800 | ≥ 800 | > 800 | > 800 | ≤ 0.25 | ≤ 0.25 | ≤ 0.25 | 1 to 16 (≈ 1.65 to 26.4 µM) | – | – | – | – |
| CCNC(=O)Nc1nc2cc(-c3cnc(N4CCC(C)(C(=O)O)CC4)nc3)cc(-c3cn(C)nn3)c2s1 [Compound 50, 1-[5-[2-(ethylcarbamoylamino)-7-(1-methyltriazol-4-yl)-1,3-benzothiazol-5-yl]pyrimidin-2-yl]-4-methyl-piperidine-4-carboxylic acid] | ≥ 800 | ≥ 800 | > 800 | > 800 | > 16 | 0.25 to 1 (≈ 0.479 to 1.92 µM) | 0.25 to 1 (≈ 0.479 to 1.92 µM) | 1 to 16 (≈ 1.92 to 30.7 µM) | – | – | – | – |
| CCNC(=O)Nc1nc2cc(-c3cnc(N4CCC(C)(C(=O)O)CC4)nc3)cc(-c3ncc(OC)cn3)c2s1 [Compound 51] | ≥ 800 | ≥ 800 | > 800 | > 800 | ≤ 0.25 | ≤ 0.25 | ≤ 0.25 | 0.25 to 1 (≈ 0.456 to 1.82 µM) | – | – | – | – |
| CCNC(=O)Nc1nc2cc(-c3cnc(N4CCC(C)(C(=O)O)CC4)nc3)cc(-c3cccc(OC)n3)c2s1 [Compound 52] | ≥ 800 | ≥ 800 | > 800 | > 800 | ≤ 0.25 | ≤ 0.25 | ≤ 0.25 | 1 to 16 (≈ 1.83 to 29.2 µM) | – | – | – | – |
| CCNC(=O)Nc1nc2cc(-c3cnc(N4CCC(C)(C(=O)O)CC4)nc3)cc(-c3ccc(F)c(C)n3)c2s1 [Compound 53] | – | 25 (≈ 45.5 µM) | 12.5 to 400 (≈ 22.7 to 728 µM) | – | ≤ 0.25 | ≤ 0.25 | ≤ 0.25 | 1 to 16 (≈ 1.82 to 29.1 µM) | ≥ 800 | > 800 | – | – |
| CCNC(=O)Nc1nc2cc(-c3cnc(N4CCC(C)(C(=O)O)CC4)nc3)cc(-c3ncc(F)cc3F)c2s1 [Compound 54] | ≥ 800 | ≥ 800 | > 800 | > 800 | ≤ 0.25 | ≤ 0.25 | ≤ 0.25 | 1 to 16 (≈ 1.81 to 28.9 µM) | – | – | – | – |
| CCNC(=O)Nc1nc2cc(-c3cnc(N4CCC(C)(C(=O)O)CC4)nc3)cc(-c3nccc(OC)c3F)c2s1 [Compound 55] | – | 400 (≈ 707 µM) | 400 to 800 (≈ 707 to 1410 µM) | – | ≤ 0.25 | ≤ 0.25 | ≤ 0.25 | 0.25 to 1 (≈ 0.442 to 1.77 µM) | ≥ 800 | > 800 | – | – |
| CCNC(=O)Nc1nc2cc(-c3cnc(N4CCC(C)(C(=O)O)CC4)nc3)cc(-c3cnc(OC)cn3)c2s1 [Compound 56] | ≥ 800 | ≥ 800 | > 800 | > 800 | ≤ 0.25 | ≤ 0.25 | ≤ 0.25 | 0.25 to 1 (≈ 0.456 to 1.82 µM) | – | – | – | – |
| CCNC(=O)Nc1nc2cc(-c3cnc(N4CCC(C)(C(=O)O)CC4)nc3)cc(-c3cc(=O)n(C(C)C)cn3)c2s1 [Compound 57] | – | 200 (≈ 347 µM) | 12.5 to 400 (≈ 21.7 to 694 µM) | – | 1 to 16 (≈ 1.73 to 27.7 µM) | 0.25 to 1 (≈ 0.434 to 1.73 µM) | 0.25 to 1 (≈ 0.434 to 1.73 µM) | 1 to 16 (≈ 1.73 to 27.7 µM) | 400 (≈ 694 µM) | 400 to 800 (≈ 694 to 1390 µM) | – | – |
| CCNC(=O)Nc1nc2cc(-c3cnc(N4CCC(C)(C(=O)O)CC4)nc3)cc(-c3ccc(C#N)c(C)n3)c2s1 [Compound 58] | – | 25 (≈ 44.9 µM) | 12.5 to 400 (≈ 22.5 to 719 µM) | – | ≤ 0.25 | ≤ 0.25 | ≤ 0.25 | 1 to 16 (≈ 1.8 to 28.7 µM) | 50 (≈ 89.8 µM) | 12.5 to 400 (≈ 22.5 to 719 µM) | – | – |
| CCNC(=O)Nc1nc2cc(-c3cnc(N4CCC(C)(C(=O)O)CC4)nc3)cc(-c3ncc(C)cn3)c2s1 [Compound 59] | ≥ 800 | ≥ 800 | > 800 | > 800 | ≤ 0.25 | ≤ 0.25 | ≤ 0.25 | ≤ 0.25 | – | – | – | – |
| CCNC(=O)Nc1nc2cc(-c3cnc(N4CCC(C)(C(=O)O)CC4)nc3)cc(-c3ncc(CC)cn3)c2s1 [Compound 60] | – | 12.5 (≈ 22.9 µM) | 12.5 to 400 (≈ 22.9 to 732 µM) | – | ≤ 0.25 | ≤ 0.25 | ≤ 0.25 | 0.25 to 1 (≈ 0.457 to 1.83 µM) | 400 (≈ 732 µM) | 400 to 800 (≈ 732 to 1460 µM) | – | – |
| CCNC(=O)Nc1nc2cc(-c3cnc(N4CCC(C)(C(=O)O)CC4)nc3)cc(-c3ncccc3OC)c2s1 [Compound 61] | ≥ 800 | ≥ 800 | > 800 | > 800 | ≤ 0.25 | ≤ 0.25 | ≤ 0.25 | 1 to 16 (≈ 1.83 to 29.2 µM) | – | – | – | – |
| CCNC(=O)Nc1nc2cc(-c3cnc(N4CCC(C)(C(=O)O)CC4)nc3)cc(-c3nc(OC)ccc3N)c2s1 [Compound 62] | ≥ 800 | ≥ 800 | > 800 | > 800 | 0.25 to 1 (≈ 0.444 to 1.78 µM) | ≤ 0.25 | 0.25 to 1 (≈ 0.444 to 1.78 µM) | 1 to 16 (≈ 1.78 to 28.4 µM) | – | – | – | – |
| CCNC(=O)Nc1nc2cc(-c3cnc(N4CCC(C)(C(=O)O)CC4)nc3)cc(-c3ncc(C#N)cc3F)c2s1 [Compound 63] | – | 400 (≈ 714 µM) | 400 to 800 (≈ 714 to 1430 µM) | – | ≤ 0.25 | ≤ 0.25 | ≤ 0.25 | 1 to 16 (≈ 1.78 to 28.5 µM) | ≥ 800 | > 800 | – | – |
| CCNC(=O)Nc1nc2cc(-c3cnc(N4CCC(C)(C(=O)O)CC4)nc3)cc(-c3nc(C)ccc3OC)c2s1 [Compound 64] | ≥ 800 | ≥ 800 | > 800 | > 800 | ≤ 0.25 | ≤ 0.25 | ≤ 0.25 | 1 to 16 (≈ 1.78 to 28.5 µM) | – | – | – | – |
| CCNC(=O)Nc1nc2cc(-c3cnc(N4CCC(C)(C(=O)O)CC4)nc3)cc(-c3ncc(C)cc3C#N)c2s1 [Compound 65] | 12.5 (≈ 22.5 µM) | 12.5 (≈ 22.5 µM) | 12.5 to 400 (≈ 22.5 to 719 µM) | 12.5 to 400 (≈ 22.5 to 719 µM) | ≤ 0.25 | ≤ 0.25 | ≤ 0.25 | 1 to 16 (≈ 1.8 to 28.7 µM) | – | – | – | – |
| CCNC(=O)Nc1nc2cc(-c3cnc(N4CCC(C)(C(=O)O)CC4)nc3)cc(-c3cnc(C)cn3)c2s1 [Compound 66] | ≥ 800 | ≥ 800 | > 800 | > 800 | ≤ 0.25 | ≤ 0.25 | ≤ 0.25 | 0.25 to 1 (≈ 0.469 to 1.88 µM) | – | – | – | – |
| CCNC(=O)Nc1nc2cc(-c3cnc(N4CCC(C)(C(=O)O)CC4)nc3)cc(-c3ccncn3)c2s1 [Compound 67] | ≥ 800 | ≥ 800 | > 800 | > 800 | ≤ 0.25 | ≤ 0.25 | ≤ 0.25 | 1 to 16 (≈ 1.93 to 30.9 µM) | – | – | – | – |
| CCNC(=O)Nc1nc2cc(-c3cnc(N4CCC(C)(C(=O)O)CC4)nc3)cc(-c3cc(OCC)ccn3)c2s1 [Compound 68] | ≥ 800 | ≥ 800 | > 800 | > 800 | ≤ 0.25 | ≤ 0.25 | ≤ 0.25 | 0.25 to 1 (≈ 0.445 to 1.78 µM) | – | – | – | – |
| CCNC(=O)Nc1nc2cc(-c3cnc(N4CCC(C)(C(=O)O)CC4)nc3)cc(-c3ncc(C#N)cc3C)c2s1 [Compound 69] | ≥ 800 | ≥ 800 | > 800 | > 800 | 1 to 16 (≈ 1.8 to 28.7 µM) | ≤ 0.25 | 0.25 to 1 (≈ 0.449 to 1.8 µM) | 1 to 16 (≈ 1.8 to 28.7 µM) | – | – | – | – |
| CCNC(=O)Nc1nc2cc(-c3cnc(N4CCC(C)(C(=O)O)CC4)nc3)cc(-c3nccc4occc34)c2s1 [Compound 70] | ≥ 800 | ≥ 800 | > 800 | > 800 | ≤ 0.25 | ≤ 0.25 | ≤ 0.25 | 1 to 16 (≈ 1.79 to 28.7 µM) | – | – | – | – |
| CCNC(=O)Nc1nc2cc(-c3cnc(N4CCC(C)(C(=O)O)CC4)nc3)cc(-c3nccc(N(C)C)c3C#N)c2s1 [Compound 71] | – | 6.25 (≈ 10.7 µM) | < 12.5 | – | 0.25 to 1 (≈ 0.427 to 1.71 µM) | ≤ 0.25 | ≤ 0.25 | 0.25 to 1 (≈ 0.427 to 1.71 µM) | – | – | 50 (≈ 85.4 µM) | 12.5 to 400 (≈ 21.3 to 683 µM) |
